According to patent US20260306640A1, “TECHNOLOGIES TARGETING CELL STATES” (Auron Therapeutics, Inc., priority 2023, published 2026):

Key:
KAT2A = KAT2A (Homo sapiens, UniProt Q92830); test: KAT2A degradation, Western Blot (Jess), NCI-H1048 cells; assay type: cell-based; set-up: degrader, Western blot (Jess); settings: NCI-H1048 cells, KAT2A, 24 h, Western Blot, vs DMSO; read-out: KAT2A NCI-H1048 DC50
Method in brief: (§1)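 DC50 came from protein loss relative to DMSO, measured by Jess capillary immunoblot of RIPA lysates with chemiluminescence read-out. Before lysis, NCI-H1048 cells in 5% FBS HITES medium were exposed to compound for 24 h at 37° C.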

KAT2B = KAT2B (Homo sapiens, UniProt Q92831); test: KAT2B degradation, Western Blot (Jess), NCI-H1048 cells; assay type: cell-based; set-up: degrader, Western blot (Jess); settings: NCI-H1048 cells, KAT2B, 24 h, Western Blot, vs DMSO; read-out: KAT2B NCI-H1048 DC50
KAT2B, sequence (Q92831 whole entry): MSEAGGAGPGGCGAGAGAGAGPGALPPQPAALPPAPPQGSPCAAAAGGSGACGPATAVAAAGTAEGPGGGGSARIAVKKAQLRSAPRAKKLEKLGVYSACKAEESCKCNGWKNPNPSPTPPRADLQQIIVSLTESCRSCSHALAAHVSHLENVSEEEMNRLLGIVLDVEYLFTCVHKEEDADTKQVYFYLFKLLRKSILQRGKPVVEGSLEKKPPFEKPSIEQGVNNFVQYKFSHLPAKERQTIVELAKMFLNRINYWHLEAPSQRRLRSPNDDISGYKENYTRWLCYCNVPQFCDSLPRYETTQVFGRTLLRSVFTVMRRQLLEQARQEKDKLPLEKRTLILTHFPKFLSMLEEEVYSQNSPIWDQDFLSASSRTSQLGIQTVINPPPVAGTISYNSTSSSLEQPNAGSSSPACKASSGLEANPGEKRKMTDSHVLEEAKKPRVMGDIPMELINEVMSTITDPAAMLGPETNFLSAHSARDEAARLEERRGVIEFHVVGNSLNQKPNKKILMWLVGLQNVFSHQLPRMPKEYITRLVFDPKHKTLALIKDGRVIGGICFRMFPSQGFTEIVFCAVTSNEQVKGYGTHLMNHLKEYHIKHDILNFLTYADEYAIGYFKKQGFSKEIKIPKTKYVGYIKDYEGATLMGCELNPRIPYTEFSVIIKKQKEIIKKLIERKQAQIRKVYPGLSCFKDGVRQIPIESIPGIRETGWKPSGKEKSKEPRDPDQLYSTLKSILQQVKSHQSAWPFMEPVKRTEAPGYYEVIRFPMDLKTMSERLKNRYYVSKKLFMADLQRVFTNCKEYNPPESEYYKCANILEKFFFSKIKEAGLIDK
Method in brief: as §1

KAT2A, sequence (Q92830 whole entry): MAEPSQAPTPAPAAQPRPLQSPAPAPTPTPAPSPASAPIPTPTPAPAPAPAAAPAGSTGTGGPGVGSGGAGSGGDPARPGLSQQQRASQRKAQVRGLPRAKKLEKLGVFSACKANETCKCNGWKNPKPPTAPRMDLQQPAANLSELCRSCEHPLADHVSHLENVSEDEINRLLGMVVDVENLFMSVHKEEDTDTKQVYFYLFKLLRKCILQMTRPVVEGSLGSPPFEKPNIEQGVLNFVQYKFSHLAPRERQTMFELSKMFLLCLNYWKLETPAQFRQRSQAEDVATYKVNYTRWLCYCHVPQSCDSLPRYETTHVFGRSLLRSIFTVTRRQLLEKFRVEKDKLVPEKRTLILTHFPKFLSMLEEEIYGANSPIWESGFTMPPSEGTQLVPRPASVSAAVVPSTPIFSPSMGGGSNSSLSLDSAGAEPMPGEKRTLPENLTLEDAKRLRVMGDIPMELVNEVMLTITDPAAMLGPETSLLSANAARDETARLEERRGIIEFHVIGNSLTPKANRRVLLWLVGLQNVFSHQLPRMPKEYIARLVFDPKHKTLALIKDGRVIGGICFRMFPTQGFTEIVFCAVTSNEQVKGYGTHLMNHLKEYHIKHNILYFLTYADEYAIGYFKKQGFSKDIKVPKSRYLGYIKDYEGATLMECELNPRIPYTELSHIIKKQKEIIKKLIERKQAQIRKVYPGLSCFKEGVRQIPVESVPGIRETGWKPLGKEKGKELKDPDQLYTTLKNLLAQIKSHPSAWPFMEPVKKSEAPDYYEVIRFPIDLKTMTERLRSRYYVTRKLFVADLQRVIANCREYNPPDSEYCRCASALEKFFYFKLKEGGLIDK

| DC50 (KAT2A) | DC50 (KAT2B) | Structure (SMILES) |
| --- | --- | --- |
| < 1 nM | > 30 nM | Cc1c(N[C@@H]2C[C@H](c3ccc(C(=O)N4CCC(C#Cc5ccc(C6CCC(=O)NC6=O)cc5)CC4)cc3)CN(C)C2)cnn(C)c1=O (some centres unmarked) [Compound 333] |
| < 1 nM | 1 to 30 nM | CN1C[C@H](Nc2cnn(C)c(=O)c2Br)C[C@H](c2ccc(C(=O)N3CCC(C#Cc4ccc(C5CCC(=O)NC5=O)cc4)CC3)cc2)C1 (some centres unmarked) [Compound 334] |
| < 1 nM | > 30 nM | CN1C[C@H](Nc2cnn(C)c(=O)c2Br)C[C@H](c2ccc(C(=O)N3CC(C#Cc4ccc(C5CCC(=O)NC5=O)cc4)C3)cc2)C1 (some centres unmarked) [Compound 335] |
| < 1 nM | > 30 nM | CN1C[C@H](Nc2cnn(C)c(=O)c2Cl)C[C@H](c2ccc(C(=O)N3CC(C#Cc4ccc(C5CCC(=O)NC5=O)cc4)C3)cc2)C1 (some centres unmarked) [Compound 336] |
| < 1 nM | > 30 nM | CN1C[C@H](Nc2cnn(C)c(=O)c2Br)C[C@H](c2ccc(C(=O)N3CC(C#Cc4ccc(C5CCC(=O)NC5=O)cc4)C3)cc2)C1 (some centres unmarked) [Compound 337] |
| < 1 nM | < 1 nM | Cc1cc(N2CCC3(CCN(Cc4ccc([C@H]5C[C@@H](Nc6cnn(C)c(=O)c6Cl)CN(C)C5)cc4)CC3)CC2)ccc1C1CCC(=O)NC1=O (some centres unmarked) [Compound 338] |
| < 1 nM | < 1 nM | Cc1cc(N2CCC3(CCN(Cc4ccc([C@H]5C[C@@H](Nc6cnn(C)c(=O)c6C)CN(C)C5)cc4)CC3)CC2)ccc1C1CCC(=O)NC1=O (some centres unmarked) [Compound 339] |
| < 1 nM | < 1 nM | CN1C[C@H](Nc2cnn(C)c(=O)c2Cl)C[C@H](c2ccc(CN3CCC4(CC3)CCN(c3ccc(C5CCC(=O)NC5=O)c(F)c3)CC4)cc2)C1 (some centres unmarked) [Compound 340] |
| < 1 nM | 1 to 30 nM | CN1C[C@H](Nc2cnn(C)c(=O)c2Cl)C[C@H](c2ccc(CN3CCN(c4ccc(F)c(C5CCC(=O)NC5=O)c4)CC3)cc2)C1 (some centres unmarked) [Compound 341] |
| < 1 nM | 1 to 30 nM | Cc1c(N[C@@H]2C[C@H](c3ccc(CN4CCN(c5ccc(F)c(C6CCC(=O)NC6=O)c5)CC4)cc3)CN(C)C2)cnn(C)c1=O (some centres unmarked) [Compound 342] |
| > 30 nM | > 30 nM | CN1C[C@H](Nc2cnn(C)c(=O)c2Cl)C[C@H](c2ccc(CN3CCC4(CC3)CCN(c3ccc(C5CCC(=O)NC5=O)c(C(F)(F)F)c3)CC4)cc2)C1 (some centres unmarked) [Compound 343] |
| > 30 nM | > 30 nM | CN1C[C@H](Nc2cnn(C)c(=O)c2Cl)C[C@H](c2ccc(CN3CCN(c4cncc(C5CCC(=O)NC5=O)c4)CC3)cc2)C1 (some centres unmarked) [Compound 344] |
| > 30 nM | > 30 nM | Cc1c(N[C@@H]2C[C@H](c3ccc(CN4CCN(c5cncc(C6CCC(=O)NC6=O)c5)CC4)cc3)CN(C)C2)cnn(C)c1=O (some centres unmarked) [Compound 346] |
| 1 to 30 nM | > 30 nM | CN1C[C@H](Nc2cnn(C)c(=O)c2Cl)C[C@H](c2ccc(CN3CCN(c4cccc(C5CCC(=O)NC5=O)c4)CC34CC4)cc2)C1 (some centres unmarked) [Compound 347] |
| < 1 nM | 1 to 30 nM | CN1C[C@H](Nc2cnn(C)c(=O)c2Br)C[C@H](c2ccc(CN3CCN(c4cccc(C5CCC(=O)NC5=O)c4)CC34CC4)cc2)C1 (some centres unmarked) [Compound 348] |
| < 1 nM | > 30 nM | Cc1c(N[C@@H]2C[C@H](c3ccc(CN4CCN(c5cccc(C6CCC(=O)NC6=O)c5)CC45CC5)cc3)CN(C)C2)cnn(C)c1=O (some centres unmarked) [Compound 349] |
| 1 to 30 nM | > 30 nM | CN1C[C@H](Nc2cnn(C)c(=O)c2Br)C[C@H](c2ccc(CN3CCN(c4ccnc(C5CCC(=O)NC5=O)c4)CC3)cc2)C1 (some centres unmarked) [Compound 350] |
| 1 to 30 nM | > 30 nM | CN1C[C@H](Nc2cnn(C)c(=O)c2Cl)C[C@H](c2ccc(CN3CCN(c4ccnc(C5CCC(=O)NC5=O)c4)CC3)cc2)C1 (some centres unmarked) [Compound 351] |
| 1 to 30 nM | > 30 nM | Cc1c(N[C@@H]2C[C@H](c3ccc(CN4CCN(c5ccnc(C6CCC(=O)NC6=O)c5)CC4)cc3)CN(C)C2)cnn(C)c1=O (some centres unmarked) [Compound 352] |
| < 1 nM | > 30 nM | CN1C[C@H](Nc2cnn(C)c(=O)c2Br)C[C@H](c2ccc(CN3C4CC3CN(c3cccc(C5CCC(=O)NC5=O)c3)C4)cc2)C1 (some centres unmarked) [Compound 353] |
| 1 to 30 nM | > 30 nM | CN1C[C@H](Nc2cnn(C)c(=O)c2Cl)C[C@H](c2ccc(CN3C4CC3CN(c3cccc(C5CCC(=O)NC5=O)c3)C4)cc2)C1 (some centres unmarked) [Compound 354] |
| 1 to 30 nM | > 30 nM | CN1C[C@H](Nc2cnn(C)c(=O)c2Br)C[C@H](c2ccc(CN3CCN(c4cc(C5CCC(=O)NC5=O)ccn4)CC3)cc2)C1 (some centres unmarked) [Compound 355] |
| 1 to 30 nM | > 30 nM | CN1C[C@H](Nc2cnn(C)c(=O)c2Cl)C[C@H](c2ccc(CN3CCN(c4cc(C5CCC(=O)NC5=O)ccn4)CC3)cc2)C1 (some centres unmarked) [Compound 356] |

| DC50 (KAT2A) | DC50 (KAT2B) | Structure (SMILES) |
| --- | --- | --- |
| 1 to 30 nM | > 30 nM | Cc1c(N[C@@H]2C[C@H](c3ccc(CN4CCN(c5cc(C6CCC(=O)NC6=O)ccn5)CC4)cc3)CN(C)C2)cnn(C)c1=O (some centres unmarked) [Compound 357] |
| > 30 nM | > 30 nM | CN1C[C@H](Nc2cnn(C)c(=O)c2Br)C[C@H](c2ccc(CN3CCN(c4cc(C5CCC(=O)NC5=O)c(F)cc4F)CC3)cc2)C1 (some centres unmarked) [Compound 358] |
| > 30 nM | > 30 nM | CN1C[C@H](Nc2cnn(C)c(=O)c2Cl)C[C@H](c2ccc(CN3CCN(c4cc(C5CCC(=O)NC5=O)c(F)cc4F)CC3)cc2)C1 (some centres unmarked) [Compound 359] |
| > 30 nM | > 30 nM | Cc1c(N[C@@H]2C[C@H](c3ccc(CN4CCN(c5cc(C6CCC(=O)NC6=O)c(F)cc5F)CC4)cc3)CN(C)C2)cnn(C)c1=O (some centres unmarked) [Compound 360] |
| < 1 nM | 1 to 30 nM | CN1C[C@H](Nc2cnn(C)c(=O)c2Cl)C[C@H](c2ccc(CN3CCN(c4cccc(C5CCC(=O)NC5=O)c4)CC3)cc2)C1 (some centres unmarked) [Compound 361] |
| < 1 nM | > 30 nM | Cc1cc(N2CCC3(CCN(C(=O)c4ccc([C@H]5C[C@@H](Nc6cnn(C)c(=O)c6Br)CN(C)C5)cc4)CC3)CC2)ccc1OC1CCC(=O)NC1=O (some centres unmarked) [Compound 364] |
| < 1 nM | < 1 nM | Cc1cc(N2CCC3(CCN(C(=O)c4ccc([C@H]5C[C@@H](Nc6cnn(C)c(=O)c6Cl)CN(C)C5)cc4)CC3)CC2)ccc1OC1CCC(=O)NC1=O (some centres unmarked) [Compound 365] |
| < 1 nM | 1 to 30 nM | CN1C[C@H](Nc2cnn(C)c(=O)c2Br)C[C@H](c2ccc(C(=O)N3CCC4(CC3)CCN(c3ccc(OC5CCC(=O)NC5=O)cn3)CC4)cc2)C1 (some centres unmarked) [Compound 366] |
| < 1 nM | > 30 nM | CN1C[C@H](Nc2cnn(C)c(=O)c2Cl)C[C@H](c2ccc(C(=O)N3CCC4(CC3)CCN(c3ccc(OC5CCC(=O)NC5=O)cn3)CC4)cc2)C1 (some centres unmarked) [Compound 367] |
| 1 to 30 nM | > 30 nM | CN1CC(Nc2cnn(C)c(=O)c2Cl)CC(c2ccc(CN3CCN(c4cccc(OC5CCC(=O)NC5=O)c4)CC3)cc2)C1 (centres unmarked) [Compound 368] |
| 1 to 30 nM | > 30 nM | CN1C[C@H](Nc2cnn(C)c(=O)c2Cl)C[C@H](c2ccc(CN3C4CC3CN(c3cccc(C5CCC(=O)NC5=O)c3)C4)cc2)C1 (some centres unmarked) [Compound 369] |
| < 1 nM | 1 to 30 nM | CN1C[C@H](Nc2cnn(C)c(=O)c2Cl)C[C@H](c2ccc(C(=O)N3CCC4(CC3)CCN(c3ccc(NC5CCC(=O)NC5=O)c(F)c3)CC4)cc2)C1 (some centres unmarked) [Compound 372] |
| < 1 nM | 1 to 30 nM | CN1C[C@H](Nc2cnn(C)c(=O)c2Br)C[C@H](c2ccc(C(=O)N3CCC4(CC3)CCN(c3ccc(NC5CCC(=O)NC5=O)c(F)c3)CC4)cc2)C1 (some centres unmarked) [Compound 373] |
| < 1 nM | > 30 nM | CN1C[C@H](Nc2cnn(C)c(=O)c2Br)C[C@H](c2ccc(C(=O)N3CCC4(CC3)CCN(c3ccc5c(N6CCC(=O)NC6=O)nccc5c3)CC4)cc2)C1 [Compound 374] |
| > 30 nM | > 30 nM | CN1C[C@H](Nc2cnn(C)c(=O)c2Cl)C[C@H](c2ccc(C(=O)N3CCC4(CC3)CCN(c3ccc5c(N6CCC(=O)NC6=O)nccc5c3)CC4)cc2)C1 [Compound 376] |
| < 1 nM | > 30 nM | CN1C[C@H](Nc2cnn(C)c(=O)c2Br)C[C@H](c2ccc(C(=O)N3CCC(c4ccc5c(C6CCC(=O)NC6=O)nccc5c4)CC3)cc2)C1 (some centres unmarked) [Compound 377] |
| 1 to 30 nM | > 30 nM | Cc1c(N[C@@H]2C[C@H](c3ccc(C(=O)N4CCC(c5ccc6c(C7CCC(=O)NC7=O)cncc6c5)CC4)cc3)CN(C)C2)cnn(C)c1=O (some centres unmarked) [Compound 378] |
| < 1 nM | > 30 nM | CN1C[C@H](Nc2cnn(C)c(=O)c2Cl)C[C@H](c2ccc(C(=O)N3CCC(c4ccc5c(C6CCC(=O)NC6=O)nccc5c4)CC3)cc2)C1 (some centres unmarked) [Compound 379] |
| < 1 nM | < 1 nM | CN1C[C@H](Nc2cnn(C)c(=O)c2Br)C[C@H](c2ccc(CN3CCN(c4ccc5c(C6CCC(=O)NC6=O)cncc5c4)CC3)cc2)C1 (some centres unmarked) [Compound 380] |
| 1 to 30 nM | < 1 nM | CN1C[C@H](Nc2cnn(C)c(=O)c2Cl)C[C@H](c2ccc(CN3CCN(c4ccc5c(C6CCC(=O)NC6=O)cncc5c4)CC3)cc2)C1 (some centres unmarked) [Compound 381] |
| < 1 nM | < 1 nM | CN1C[C@H](Nc2cnn(C)c(=O)c2Br)C[C@H](c2ccc(CN3CCN(c4ccc5c(C6CCC(=O)NC6=O)nccc5c4)CC3)cc2)C1 (some centres unmarked) [Compound 382] |
| < 1 nM | 1 to 30 nM | CN1C[C@H](Nc2cnn(C)c(=O)c2Cl)C[C@H](c2ccc(CN3CCN(c4ccc5c(C6CCC(=O)NC6=O)nccc5c4)CC3)cc2)C1 (some centres unmarked) [Compound 383] |
| < 1 nM | < 1 nM | CN1C[C@H](Nc2cnn(C)c(=O)c2Br)C[C@H](c2ccc(C(=O)N3CCN(c4ccc5nc(C6CCC(=O)NC6=O)ccc5c4)CC3)cc2)C1 (some centres unmarked) [Compound 384] |
